Laboratory results from US9714228B2, “Dihydrofuran derivatives as insecticidal compounds” (Syngenta Participations AG, priority 2010, dated 2017).

Legend:
Type in all cases: in vivo
[1] = tested on: Spodoptera littoralis; test: Spodoptera littoralis, sprayed cotton leaf discs, L1 larvae; settings: foliar, 72 h, cotton leaf discs sprayed at 200 ppm, 3 days after treatment
Description: Spodoptera littoralis (Egyptian Cotton Leafworm): Cotton leaf discs were placed on agar in a 24-well microtiter plate and sprayed with test solutions at an application rate of 200 ppm. After drying, the leaf discs were infested with 5 L1 larvae. The samples were checked for mortality, feeding behavior, and growth regulation 3 days after treatment (DAT).

[2] = tested on: Plutella xylostella; test: Plutella xylostella, L2 larvae on treated artificial diet; settings: 144 h, 200 ppm (concentration in well 18 ppm), 6 days incubation
Procedure: (§1) Plutella xylostella (Diamond Back Moth): 24-well microtiter plate (MTP) with artificial diet was treated with test solutions at an application rate of 200 ppm (concentration in well 18 ppm) by pipetting. After drying, the MTPs were infested with L2 larvae (7-12 per well). After an incubation period of 6 days, samples were checked for larval mortality and growth regulation.

[3] = tested on: Heliothis virescens; test: Heliothis virescens, eggs on treated artificial diet; settings: 96 h, 200 ppm (concentration in well 18 ppm), 4 days incubation
Procedure: Heliothis virescens (Tobacco Budworm): Eggs (0-24 h old) were placed in 24-well microtiter plate on artificial diet and treated with test solutions at an application rate of 200 ppm (concentration in well 18 ppm) by pipetting. After an incubation period of 4 days, samples were checked for egg mortality, larval mortality, and growth regulation.

[4] = tested on: Spodoptera littoralis; test: Spodoptera littoralis (systemic), salad grown on treated agar, eggs; settings: 120 h, application rate 12.5 ppm, checked 5 days after infestation (mortality, repellent effect, feeding behavior, growth regulation)
Description: Spodoptera littoralis (Systemic) (Egyptian Cotton Leaf Worm) Test compounds were applied by pipette into 24 well plates and mixed with agar. Salad seeds were placed on the agar and the multi well plate is closed by another plate which contains also agar. After 7 days the roots have absorbed the compound and the salad has grown into the lid plate. The salad leafs were now cut off into the lid plate. Spodoptera eggs were pipette through a plastic stencil on a humid gel blotting paper and the plate closed with it. The samples are checked for mortality, repellent effect, feeding behavior, and growth regulation 5 days after infestation. Application rate: 12.5 ppm

[5] = tested on: Diabrotica balteata; test: Diabrotica balteata, L2 larvae on treated artificial diet; settings: 120 h, 200 ppm (concentration in well 18 ppm), 5 days incubation
Procedure: as §1, with “Diabrotica balteata (Corn Root Worm): A” for “Plutella xylostella (Diamond Back Moth):”, “(6-10” for “(7-12”, “5” for “6”

[6] = tested on: Thrips tabaci; test: Thrips tabaci, sprayed sunflower leaf discs; settings: foliar, 168 h, sunflower leaf discs sprayed at 200 ppm, mixed ages, mortality after 7 days
Procedure: Thrips tabaci (Onion Thrips): Sunflower leaf discs were placed on agar in a 24-well microtiter plate and sprayed with test solutions at an application rate of 200 ppm. After drying, the leaf discs were infested with an […] population of mixed ages. After an incubation period of 7 days, samples were checked for mortality.

[7] = tested on: Tetranychus urticae; test: Tetranychus urticae, sprayed bean leaf discs; settings: foliar, 192 h, bean leaf discs sprayed at 200 ppm, mixed ages, checked 8 days later
Description: Tetranychus urticae (Two-Spotted Spider Mite): Bean leaf discs on agar in 24-well microtiter plates were sprayed with test solutions at an application rate of 200 ppm. After drying, the leaf discs are infested with mite populations of mixed ages. 8 days later, discs are checked for egg mortality, larval mortality, and adult mortality.

[8] = tested on: Myzus persicae; test: Myzus persicae (sachet), mixed population, sucrose solution; settings: 120 h, application rate 12.5 ppm, mortality 5 days after infestation
Description: Myzus persicae (Sachet) (Green Peach Aphid) Mixed Population Test compounds were applied by pipette into 24 well plates and mixed with Sucrose solution. The plates were closed with a stretched Parafilm. A plastic stencil with 24 holes is placed onto the plate and infested pea seedlings were placed directly on the Parafilm. The infested plate is closed with a gel blotting paper and another plastic stencil and then turned upside down. 5 days after infestation the samples were checked on mortality. Application rate: 12.5 ppm.

Cc1cc(C2=COC(c3cc(Cl)cc(Cl)c3)(C(F)(F)F)C2)ccc1C(=O)NC1CSC1 (centres unmarked) [Compound D21]
≥ 80%: pest or weed control at 200 ppm [1] | pest or weed control at 200 ppm [2] | pest or weed control at 200 ppm [3] | pest or weed control at 12.5 ppm [4] | pest or weed control at 200 ppm [5] | pest or weed control at 200 ppm [6] | pest or weed control at 200 ppm [7] | pest or weed control at 12.5 ppm [8]

Cc1cc(C2=COC(c3cc(Cl)cc(Cl)c3)(C(F)(F)F)C2)ccc1C(=O)NC1C[S+]([O-])C1 (centres unmarked) [Compound D20]
≥ 80%: pest or weed control at 200 ppm [1] | pest or weed control at 200 ppm [2] | pest or weed control at 200 ppm [3] | pest or weed control at 12.5 ppm [4] | pest or weed control at 200 ppm [5] | pest or weed control at 200 ppm [6] | pest or weed control at 200 ppm [7] | pest or weed control at 12.5 ppm [8]

Cc1cc(C2=COC(c3cc(Cl)cc(Cl)c3)(C(F)(F)F)C2)ccc1C(=O)NCC1CCCO1 (centres unmarked) [Compound D8]
≥ 80%: pest or weed control at 200 ppm [1] | pest or weed control at 200 ppm [2] | pest or weed control at 200 ppm [3] | pest or weed control at 12.5 ppm [4] | pest or weed control at 200 ppm [5] | pest or weed control at 200 ppm [6] | pest or weed control at 200 ppm [7] | pest or weed control at 12.5 ppm [8]

Cc1cc(C2=COC(c3cc(Cl)cc(Cl)c3)(C(F)(F)F)C2)ccc1C(=O)NCc1ccccn1 (centres unmarked) [Compound D15]
≥ 80%: pest or weed control at 200 ppm [1] | pest or weed control at 200 ppm [2] | pest or weed control at 200 ppm [3] | pest or weed control at 12.5 ppm [4] | pest or weed control at 200 ppm [5] | pest or weed control at 200 ppm [6] | pest or weed control at 200 ppm [7] | pest or weed control at 12.5 ppm [8]
